pIC50: −log10 of the molar value. Values after ≈ are worked out from the molar mass of the structure shown. Values joined by “and” are separate entries in the source; they are usually repeats but may differ in a detail not shown here. Equal entries are not always repeated. “Also recorded” adds a separate entry of the source. Where two headings read alike, the source gives them in different places.
What was measured:
VSV = experiment: microbe, parasite or virus in culture; format: cell-based; settings: for Virus Rating: >1.0 definite, 0.5-0.9 moderate, <0.5 slight or no activity; for EC50: Vesicular stomatitis virus, read-out: ED50
B16 Melanoma = experiment: Growth inhibition in suspension cell culture, B16 Melanoma; format: cell-based; settings: Mus musculus, 72 hours, cell count 50 percent of untreated control, read-out: ID50 (the source's name)
Description: (§1) In further tests, growth-inhibitory effects of COMPOUND 1 and COMPOUND 2 were measured against 3 mouse tumor lines in suspension cell culture. Cell cultures were initiated at a density of 50,000 cells/ml in medium RPMI 1630 supplemented with 10 percent fetal calf serum. Composition of this culture medium and details of the culture procedure followed the published method (G. E. Moore, A. A. Sandberg and K. Ulrich, Suspension Cell Culture and in vivo and in-vitro chromosome constitution of mouse leukemia L1210, Journal of the National Cancer Institute 36, 405-415, 1966). Cultures were maintained at 37 degrees in stationary suspension culture under a 95 percent air+5 percent CO2 atmosphere. Test compounds were added to treated cultures at the time of initiation, and were present continually. After 72 hours, 40-fold dilutions of drug-treated and untreated control cultures were prepared in 0.9 percent NACl solution, and cells were counted on an electronic particle counter. The growth-inhibitory effects are expressed as ID50 values, namely, test compound inhibitory dosages or concentrations required to decrease cell count in treated cultures to 50 percent of the cell count of untreated control cultures.

cell culture = experiment: Cytotoxicity in cell culture
DNA and RNA viruses = experiment: Antiviral activity against the DNA and RNA virus panel; format: cell-based
Excerpt: Microbiol. 22, 797 (1971). A virus rating that is greater than 1.0 indicates definite antiviral activity. […] The results reported below were obtained by testing on Microtest II (Falcon Plastics) plastic panels with a monolayer of Vero or HeLa cells.

3 mouse tumor lines = experiment: Growth inhibition in suspension cell culture, representative tumor lines; format: cell-based; settings: representative tumor lines in cell culture
Description: as §1

Lewis lung carcinoma [1] = experiment: Antitumor activity against Lewis lung carcinoma, Example 12 (Table 1); format: in vivo, B6 D2 F1 male mice; settings: for Treated Group Survival Time: median, control 19.0, 60-day test
Description: (§2) As illustrative examples of the antitumor use of COMPOUNDS 1 and 2, Examples 12 through 14, below, are given. […] The tests utilized in these illustrative examples were conducted by the Developmental Therapeutics Program, Division of Cancer Treatment, National Cancer Institute. The tests were supervised by this agency utilizing their standard protocols and procedures. All tests conformed to these protocols and all tests were evaluated under the criteria defined by these protocols. The following representative examples illustrate confirmed activity of the illustrative compounds of the invention against screening tumor systems of the National Cancer Institute.
(§3) For purposes of the following examples, the abbreviation IP stands for intraperitoneal and IV stands for intravenous. The mean and median survival times are calculated in instruction 14 (revised 6/78) of the Screening Data Summary, Developmental Therapeutics Program, Division of Cancer Treatment, National Cancer Institute. The contents of this Screening Data Summary including appropriate revisions are herein incorporated by reference.
(§4) In the illustrated examples below, the vehicle used as carrier for the drug was injected (minus any drug therein) into the control animals at the same level of use of the vehicle in the drug treated animals in order to eliminate any vehicle effect of the tests.
For example 12, B6 D2 F1 male mice were used and challenged with Lewis lung carcinoma. The median survival time of the test animals was compared to that of appropriate control animals.
In Example 12, forty control animals and ten test animals were used, each at dose levels indicated below in Table 1. For both the control group and the drug treated group, tumors were induced by IV injection on day zero followed by initiation of drug treatment on day one. For Example 12 water was used as the drug vehicle.
In both the control group and the drug treated group in Example 12, the animals were inoculated on day zero with a homogenate of 10^6 seed cells of Lewis lung carcinoma. For Example 12, drug treatment was started on day one and COMPOUND 1 given once daily for nine days. Day five was utilized as the cut-off date for deaths attributable to toxicity of the drug. […] Efficacy of treatment was determined by comparing median survival time of the control animals and is expressed as percentage increase of treated animals/control animals (T/C).
The test period was for sixty days and at the end of the sixty day period all animals surviving in the test groups were evaluated as either cured, no-takes, or tumor survivors.
In this example, the drug tested animals were injected IP with the dose level noted in Table I below. Ten animals were treated at each dose level. No control animals survived beyond day 23 with a median death rate of day 19.0.

Lewis lung carcinoma [2] = experiment: Antitumor activity against Lewis lung carcinoma, Example 13 (Table II); format: in vivo, B6 D2 F1 female mice; settings: for Treated Group Survival Time: median, control 16.9
Description: as §2, §3, §4
In this example COMPOUND 1 was tested in B6 D2 F1 female mice challenged with Lewis lung carcinoma. The median survival time of the test animals was compared to that of appropriate control animals.

Vero cells = experiment: Toxicity to Vero cells; settings: 1000 ug/ml (highest concentration tested)
[3] = 3 mg/kg IP once daily for nine days
[4] = 6 mg/kg IP once daily for nine days
[5] = 9 mg/kg IP once daily for nine days
[6] = 13 mg/kg IP once daily for nine days
[7] = 20 mg/kg IP once daily for nine days
[8] = 33 mg/kg IP once daily for nine days
[9] = 50 mg/kg IP once daily for nine days
[10] = 75 mg/kg IP once daily for nine days
[11] = 12 mg/kg (12.50 mg/kg in source)

NC(=O)c1c[se]c([C@@H]2O[C@H](CO)[C@@H](O)[C@H]2O)n1 [COMPOUND 1, 2-β-D-ribofuranosylselenazole-4-carboxamide]
antiviral activity in words (VSV; HeLa cells, Rhabdoviridae (VSV)): Excellent antiviral activity | Virus Rating (VSV; HeLa): 2.1 | Virus Rating (VSV; Vero): 0.4 | EC50 (VSV; HeLa): 9 µg/mL (≈ 29.3 µM) | EC50 (VSV; Vero): 1000 µg/mL (≈ 3260 µM) | pIC50 (B16 Melanoma): 5.46 | cytotoxicity in words (cell culture): low cytotoxicity | antiviral activity in words (DNA and RNA viruses; DNA and RNA viruses, Vero or HeLa cells): showed activity against both small and large viruses of both DNA and RNA types; also recorded: good broad spectrum antiviral activity against both DNA and RNA viruses | inhibition of viral cytopathic effects in words (DNA and RNA viruses; cell culture, representative viruses): inhibits viral cytopathic effects in cell culture for representative viruses at extremely low dosage | growth inhibition in words (3 mouse tumor lines): inhibit growth in cell culture for representative tumor lines at extremely low dosage | Cures (Lewis lung carcinoma [1]; [3]): One and 1/10 | Percent Treated Animal/Control Animal (T/C) (Lewis lung carcinoma [1]; [3]): 152% | Treated Group Survival Time (Lewis lung carcinoma [1]; [3]): 28.9 | Cures (Lewis lung carcinoma [1]; [4]): 1/10 | Treated Group Survival Time (Lewis lung carcinoma [1]; [4]): 12.0 | Cures (Lewis lung carcinoma [1]; [5]): 3/10 | Treated Group Survival Time (Lewis lung carcinoma [1]; [5]): 10.4 | Cures (Lewis lung carcinoma [1]; [6]): 5 out of 10 and 5/10 | Percent Treated Animal/Control Animal (T/C) (Lewis lung carcinoma [1]; [6]): 315% | Treated Group Survival Time (Lewis lung carcinoma [1]; [6]): 60.0 | Cures (Lewis lung carcinoma [1]; [7]): 2/10 | Treated Group Survival Time (Lewis lung carcinoma [1]; [7]): 16.0 | Cures (Lewis lung carcinoma [1]; [8]): 3/10 | Percent Treated Animal/Control Animal (T/C) (Lewis lung carcinoma [1]; [8]): 94% | Treated Group Survival Time (Lewis lung carcinoma [1]; [8]): 18.0 | Cures (Lewis lung carcinoma [1]; [9]): 1/10 | Percent Treated Animal/Control Animal (T/C) (Lewis lung carcinoma [1]; [9]): 94% | Treated Group Survival Time (Lewis lung carcinoma [1]; [9]): 18.0 | Cures (Lewis lung carcinoma [1]; [10]): 7 out of 10 and 7/10 | Percent Treated Animal/Control Animal (T/C) (Lewis lung carcinoma [1]; [10]): 315% | Treated Group Survival Time (Lewis lung carcinoma [1]; [10]): 60.0 | survival of treated animals in words (Lewis lung carcinoma [1]; 75 and 13 mg/kg IP): all of the treated animals survived | antitumor activity in words (Lewis lung carcinoma [1]; Lewis lung carcinoma, mice): active against Lewis lung carcinoma; also recorded: outstanding activity against Lewis lung carcinoma | mortality attributable to drug toxicity (Lewis lung carcinoma [1]; cut-off day five, 3-75 mg/kg IP once daily): no mortality attributable to drug toxicity | DN2 criteria of NCI (Lewis lung carcinoma [1]; mouse, in vivo): successfully passed the DN (decision network) 2 criteria; also recorded: DN2 criteria of NCI were passed | Cures (Lewis lung carcinoma [2]; [11]): 8 out of 10 and 8/10 | Percent Treated Animals/Control Animals (T/C) (Lewis lung carcinoma [2]; [11]): 355% | Treated Group Survival Time (Lewis lung carcinoma [2]; [11]): 60.0 | Cures (Lewis lung carcinoma [2]; 25 mg/kg): 7 out of 10 and 7/10 | Percent Treated Animals/Control Animals (T/C) (Lewis lung carcinoma [2]; 25 mg/kg): 355% | Treated Group Survival Time (Lewis lung carcinoma [2]; 25 mg/kg): 60.0 | Cures (Lewis lung carcinoma [2]; 50 mg/kg): 6 out of 10 and 6/10 | Percent Treated Animals/Control Animals (T/C) (Lewis lung carcinoma [2]; 50 mg/kg): 355% | Treated Group Survival Time (Lewis lung carcinoma [2]; 50 mg/kg): 60.0 | Cures (Lewis lung carcinoma [2]; 100 mg/kg): 3/10 | Percent Treated Animals/Control Animals (T/C) (Lewis lung carcinoma [2]; 100 mg/kg): 120% | Treated Group Survival Time (Lewis lung carcinoma [2]; 100 mg/kg): 20.3 | Cures (Lewis lung carcinoma [2]; 200 mg/kg): 0/10 | Treated Group Survival Time (Lewis lung carcinoma [2]; 200 mg/kg): 10.7 | survival of test animals in words (Lewis lung carcinoma [2]; 50, 25 and 12.50 mg/kg): all of the test animals survived | antitumor activity in words (Lewis lung carcinoma [2]; median survival time versus control): effective antitumor agent | toxicity to cells (Vero cells): non-toxic
